Counter-ions that a name gives are not always drawn.

One may read the melting point as the temperature, or range, at which the solid turns liquid.

As for `CN(c1nnc(C(F)(F)F)s1)C1CCN(Cc2cccc(F)c2)CC1`, the melting point worked out at 80.5 °C.
`FC(F)(F)Oc1cccc(CN2CCC(Nc3nnc(C(F)(F)F)s3)CC2)c1` showed a melting point of 116.3 °C.
The compound `N#Cc1nnc(NC2CCN(Cc3ccc(F)c(F)c3)CC2)s1` gave a melting point of 199.4 °C.
In the case of `Fc1ccc(CN2CCC(Nc3nc(C(F)(F)F)cs3)CC2)cc1F` (as salt: hydrochloride) it was 238 °C.
For `N#Cc1nnc(NC2CCN(Cc3cc(F)c(F)c(F)c3)CC2)s1` the value was 211.3 °C.
For `CN(c1nnc(C(F)(F)F)s1)C1CCN(Cc2ccc(F)cc2)CC1` the value was 85.8 °C; for `Fc1cc(CN2CCC(Nc3nnc(C(F)(F)F)s3)CC2)ccc1C(F)(F)F`, 130.2 °C.
